Measured values published in US20020058636A1, “RIBOZYMES TARGETING THE RETROVIRAL PACKAGING SEQUENCE EXPRESSION CONSTRUCTS AND RECOMBINANT RETROVIRUSES CONTAINING SUCH CONSTRUCTS” (priority 1994, published 2002).

Columns and labels:
Format in all cases: cell-based
[1] = system: HIV-1 (SF2); experiment: Syncitia formation of infected SupT1 cells over days post infection
Description: The anti-HIV packaging site construct, pSV-Rz-HIV-Psi, was electroporated into Sup T-1 cells, a human T lymphoma cell line. Exponentially growing cells were harvested and the number of viable cells counted by dye exclusion. The cells were washed with PBS and resuspended at a density of 1×10^7 viable cells/ml in RPMI media without FCS but containing 10 m,M dextrose and 0.1 mM dithiothreitol. 0.4 ml of the cell suspension and 10 μg of pSV-Rz-HIV-Psi plasmid DNA were used per electroporation in 0.4 cm cuvettes (Bio-Rad) . The cell and DNA mixture was subjected to a single pulse of 960 μF, 200V from a Gene Pulser (Bio-Rad) . After shocking, the cuvette was incubated for 10 minutes at room temperature, and the cells were then transferred to 10 ml of RPMI media with 10% FCS and placed into an incubator (5%CO2, 37° C.). At 48 hours post electroporation, the cells were selected in medium supplemented with 800 μg/ml G418. 9-12 days later, positive colonies were isolated and grown as clonal isolates to be used in a HIV protection assay.
(§1) Two assays, p24 antigen and syncytium formation, were performed to assess efficacy of the anti-HIV Psi ribozyme construct in cell culture. HIV-1 p24 antigen assay is an enzyme immunoassay, which uses a murine monoclonal antibody against HIV core antigen coated onto microwell strips. The HIV-1 syncytium assay is based on the observation that HIV-1 interacts with target T lymphocytes by causing fusion resulting in the formation of syncytia, large cells containing many nuclei. The clonal ribozyme-construct expressing cells, plus controls, were infected with HIV-1 (SF2) at m.o.i. of 0.1 to 1. After 2 hours, the cells were washed, and 10 ml of fresh media was added. Every 3-4 days, the number of both syncitia and viable cells were counted. […] In addition, the presence of the ribozyme caused a delay in syncitia formation (Table 4).

[2] = system: HIV-1 IIIB; experiment: BM12 antibody and ribozyme expression, p24 production in SupT1 cells; conditions: BM12 Concentration 0.00 μg/ml
Description: The anti-HIV-1 antibody BM12 has been tested for its potential combined effect with ribozymes on HIV-1 replication. Rz2 (a single ribozyme targeted to the HIV-1 tat gene) and SV2neo vector expressing SupT1 cells were infected with HIV-1 IIIB virus for 2 hr and then washed. The cells were resuspended in BM12 antibody containing medium (0, 0.5, 5, 50 μg BM12 antibody/ml) and incubated at 37° C., 5% CO2. Samples of medium were taken at days 3, 5, 9, 12 and 15 for p24 assays. Cytopathic effect (CPE) determined by syncytia formation was monitored at days 3, 6, 9, 12. […] The following Table 6 summarizes the p24 data at day 15.

[3] = system: HIV-1 (SF2); experiment: HIV-1 p24 antigen assay in ribozyme-expressing Sup T-1 cells
Description: Vector, is the control construct. Rz-2 and Rz-M are two ribozyme constructs targeted to the tat gene of HIV. Rz-M is a multi-ribozyme containing several ribozymes targeted to different sites within tat. This includes the site targeted by Rz-2.
as §1
In another experimental protocol, the cells were pelleted, and an aliquot of the supernatant taken for p24 assay. In this experiment there was an inhibition of p24 levels to day 22 post challenge.

Sequence	Syncitia formation ([1]; 6 Days Post Infection)	Syncitia formation ([1]; 7 Days Post Infection)	Syncitia formation ([1]; 8 Days Post Infection)	Syncitia formation ([1]; 9 Days Post Infection)	Syncitia formation ([1]; 10 Days Post Infection)	Syncitia formation ([1]; 11 Days Post Infection)	p24 Production at Day 15 [2] [ng/mL]	inhibition of HIV-1 replication [3]
GTCAAAAATTGGCGCTGATGAGTCCGTGAGGACGAAACTCACCAGTCGCCG (chemistry not given here) [Rz-Psi, single anti-HIV Psi packaging site ribozyme cloned into neo r gene of pSV2neo]	− (−, no syncytia)	− (−, no syncytia)	− (−, no syncytia)	− (−, no syncytia)	− (−, no syncytia)	− (−, no syncytia)	–	–
TTAGGATCCTGATGAGTCCGTGAGGACGAAACTGGCTC (chemistry not given here) [Rz-2, single ribozyme targeted to the HIV-1 tat gene]	–	–	–	–	–	–	1.90	effective in inhibiting HIV-1 replication
